Laboratory results from patent publication US4575508A, “2-Substituted 1-(3'-aminoalkyl)-1,2,3,4-tetrahydro-β-carbolines, and their use as antiarrhythmic agents” (BASF Aktiengesellschaft, priority 1982, dated 1986).
Read-outs that look alike come from different tables or passages of the source.

Key:
Format in all cases: in vivo, male Sprague-Dawley rats
[1] = system: aconitine-induced arrhythmia; assay: Aconitine-induced arrhythmia in rats, oral administration (antiarrhythmic activity); conditions: for ED50: Rattus norvegicus, po, 1 h, read-out: Aconitine-induced arrhythmia ED 50% (dose which prolongs the aconitine infusion duration by 50%); for times more effective than quinidine on aconitine-induced arrhythmia / R.A. (relative activity, based on quinidine = 1.00): rat, oral; for R.A. (relative activity, based on quinidine = 1.00): aconitine-induced arrhythmia; for antiarrhythmic action (in words): general statement
Experimental: (§1) To investigate the antiarrhythmic activity, the substances were administered orally to male Sprague-Dawley rats each weighing 200-250 g. 45 minutes later, the animals were anesthetized with sodium thiobutabarbital (100 mg/kg, administered intraperitoneally). Aconitine was used as the arrhythmogenic substance, and was infused intravenously 60 minutes after administration of the substance (dosage rate: 0.005 mg per kg per min.). […] The onset of these arrhythmias could be delayed by means of antiarrhythmics, the delay achieved being dose-dependent.
Linear relationships exist between the logarithms of the doses (mg/kg) of the test substances and the relative prolongation of the aconitine infusion duration (Δ%), from which relationships the dose which prolongs the infusion duration by 50% can be determined, as the ED 50%.
The known antiarrhythmic quinidine was used as a comparative substance.

[2] = Toxicity: dose at which first cardiotoxic or neurotoxic symptoms occur, rat, oral administration; conditions: in vivo
Experimental: as §1
(§2) For further characterization of the substances, the dose at which the first cardiotoxic symptoms (changes in the initial ECG) or neurotoxic symptoms (coordination disturbances, convulsions, etc.) occurred was determined from the decimal-geometric dosage progression (factor .cuberoot.10) used in the experiments.

rat = assay: as above
Experimental: as §1, §2

Row | SMILES | ED50 [1] [mg/kg] | times more effective than quinidine on aconitine-induced arrhythmia [1] [times] | R.A. (relative activity, based on quinidine = 1.00) [1] | selectivity ratio ([2]; po) | Toxicity Dose (dose after the application of which the first toxic symptoms are observed) (rat; in vivo, po) [mg/kg] | antiarrhythmic action (in words) [1] | selectivity ratio ([2]; oral, measure of the therapeutic index, read-out: Toxicity Q (quotient of the toxic dose and the antiarrhythmically effective dose, ED 50%)) | Toxicity Dose (dose after the application of which the first toxic symptoms are observed) (rat; oral, cardiotoxic or neurotoxic symptoms) [mg/kg]
1 | CC(=O)N1CCc2c([nH]c3ccccc23)C1CCCN(C)C (stereo not drawn) [Example 4, 1-(3'-Dimethylaminopropyl)-2-acetyl-1,2,3,4-tetrahydro-β-carboline] | 13.5 | 3 | 3.22 | 16 | 215 |  |  | 
2 | CC(=O)N1CCc2c([nH]c3ccccc23)C1CCCN1CCN(C)CC1 (stereo not drawn) [Example 21, 1-[3'-(4-Methylpiperazin-1-yl)-propyl]-2-acetyl-1,2,3,4-tetrahydro-β-carboline] | 14.6 | 3 | 2.98 | 15 | 215 |  |  | 
3 | CCCCNCCCC1c2[nH]c3ccccc3c2CCN1C(C)=O (stereo not drawn) [Example 28, 1-(3'-n-Butylaminopropyl)-2-acetyl-1,2,3,4-tetrahydro-β-carboline] | 12.4 |  | 3.51 | 17 | 215 |  |  | 
4 | CCCCN(CCCC)CCCC1c2[nH]c3ccccc3c2CCN1C(C)=O (stereo not drawn) [Example 31, 1-[3'-(Di-n-butyl)-aminopropyl]-2-acetyl-1,2,3,4-tetrahydro-β-carboline] | 1.71 |  | 25.44 | 13 | 21.5 |  |  | 
5 | CCC(C)N(CCCC1c2[nH]c3ccccc3c2CCN1C(C)=O)C(C)CC (stereo not drawn) [Example 33, 1-[3'-(Di-2-butyl)-aminopropyl]-2-acetyl-1,2,3,4-tetrahydro-β-carboline] | 1.57 |  | 27.71 | 14 | 21.5 |  |  | 
6 | CCCN(CCC)CCCC1c2c(c3ccccc3n2C)CCN1C(C)=O (stereo not drawn) [Example 42, 1-(3'-Dipropylaminopropyl)-2-acetyl-9-methyl-1,2,3,4-tetrahydro-β-carboline] | 0.842 |  | 51.66 | 12 | 10 | particularly active |  | 
7 | CC(=O)N1CCc2c(n(C)c3ccccc23)C1CCCN(CC(C)C)CC(C)C (stereo not drawn) [Example 43, 1-[3'-(Di-2-methylpropyl)-aminopropyl]-2-acetyl-9-methyl-1,2,3,4-tetrahydro-β-carboline] | 0.803 |  | 54.17 | 13 | 10 | particularly active |  | 
8 | CCn1c2c(c3ccccc31)CCN(C(C)=O)C2CCCN1CCN(C)CC1 (stereo not drawn) [Example 44, 1-[3'-(4-Methylpiperazin-1-yl)-propyl]-2-acetyl-9-ethyl-1,2,3,4-tetrahydro-β-carboline] | 9.21 |  | 4.72 | 23 | 215 |  |  | 
9 | CCCN(CCCC1c2c(c3ccccc3n2C)CCN1C(C)=O)C(C)C (stereo not drawn) [Example 46, 1-[3'-(Isopropylpropyl)-aminopropyl]-2-acetyl-9-methyl-1,2,3,4-tetrahydro-β-carboline] | 0.732 | 59 | 59.43 |  |  |  | 14 | 4.64
10 | C=C[C@H]1C[N@@]2CC[C@H]1C[C@@H]2[C@@H](O)c1ccnc2ccc(OC)cc12 [quinidine, reference compound] | 43.5 |  |  |  |  |  |  | 
